Assay [1] deals with Tb-labeled inactive PDGFRβ (Homo sapiens (Human), UniProt P09619). Kind of assay: biochemical. It counts as binding.
For assay [2], the target named is His6-TEV-PDGFRβ (557-1016) (Homo sapiens (Human), UniProt P09619). The assay can be described thus: PDGFRβ HTRF Assay. In kind it is biochemical. (In general: Time-resolved FRET reads energy transfer from a long-lived donor to a nearby acceptor.)
Assay [3] has as its target VEGFR2, unphosphorylated (Homo sapiens (Human), UniProt P35968). Kind of assay: VEGFR ADP GLO assay. The note with it: 5 nM VEGFR2, 1.2 mM ATP, 1 mg/mL Srctide, 180 min. In kind it is biochemical. The procedure, abridged:
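Luminescent ADP detection after a 180-min room-temperature reaction of srctide plus ATP (2 mg/mL and 2.4 mM in 2× mix) in pH 7.5 HEPES buffer with DTT, Pluronic and ovalbumin. Compounds, 11 points from 10 µM, first pre-incubated 30 min with enzyme (2× mix 10 nM). IC50s fitted after scaling between DMSO and 1 µM TAK-593 controls.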

Assay [4] has as its target PDGFRβ (Rattus norvegicus (Rat), UniProt Q05030). Kind of assay: PDGFRβ Cellular Assay (PDGFRb P-Y751 HTRF, PDGF-BB stimulated A10 cells). It counts as cell-based. The procedure, abridged: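 Rat A10 cells plated overnight were treated with compound for 3 h, stimulated with rat PDGF-BB (working stock 100 ng/mL in 10% FBS medium) for 10 min, then lysed.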
[5] abbreviates: 800 μM ATP, 0.5 μM TK-substrate biotin peptide, 30 min pre-incubation, 3 hours reaction, read-out: PDGFR HTRF IC50.
Setting [6] is: A10 cells, 3 hours compound, 15 ng/mL PDGFbb for 10 minutes, read-out: PDGFR Cellular IC50.

The values below come from patent publication US20240360134A1, “PYRAZOLOPYRIMIDINES AND THEIR USES AS PDGFR INHIBITORS” (priority 2021, published 2024).

Molecules are shown by their SMILES. pIC50: −log10 of the molar value. Read-outs that look alike come from different tables or passages of the source. Bounds are passed on as bounds.

Chain of Tb-labeled inactive PDGFRβ (P09619 whole entry, looked up): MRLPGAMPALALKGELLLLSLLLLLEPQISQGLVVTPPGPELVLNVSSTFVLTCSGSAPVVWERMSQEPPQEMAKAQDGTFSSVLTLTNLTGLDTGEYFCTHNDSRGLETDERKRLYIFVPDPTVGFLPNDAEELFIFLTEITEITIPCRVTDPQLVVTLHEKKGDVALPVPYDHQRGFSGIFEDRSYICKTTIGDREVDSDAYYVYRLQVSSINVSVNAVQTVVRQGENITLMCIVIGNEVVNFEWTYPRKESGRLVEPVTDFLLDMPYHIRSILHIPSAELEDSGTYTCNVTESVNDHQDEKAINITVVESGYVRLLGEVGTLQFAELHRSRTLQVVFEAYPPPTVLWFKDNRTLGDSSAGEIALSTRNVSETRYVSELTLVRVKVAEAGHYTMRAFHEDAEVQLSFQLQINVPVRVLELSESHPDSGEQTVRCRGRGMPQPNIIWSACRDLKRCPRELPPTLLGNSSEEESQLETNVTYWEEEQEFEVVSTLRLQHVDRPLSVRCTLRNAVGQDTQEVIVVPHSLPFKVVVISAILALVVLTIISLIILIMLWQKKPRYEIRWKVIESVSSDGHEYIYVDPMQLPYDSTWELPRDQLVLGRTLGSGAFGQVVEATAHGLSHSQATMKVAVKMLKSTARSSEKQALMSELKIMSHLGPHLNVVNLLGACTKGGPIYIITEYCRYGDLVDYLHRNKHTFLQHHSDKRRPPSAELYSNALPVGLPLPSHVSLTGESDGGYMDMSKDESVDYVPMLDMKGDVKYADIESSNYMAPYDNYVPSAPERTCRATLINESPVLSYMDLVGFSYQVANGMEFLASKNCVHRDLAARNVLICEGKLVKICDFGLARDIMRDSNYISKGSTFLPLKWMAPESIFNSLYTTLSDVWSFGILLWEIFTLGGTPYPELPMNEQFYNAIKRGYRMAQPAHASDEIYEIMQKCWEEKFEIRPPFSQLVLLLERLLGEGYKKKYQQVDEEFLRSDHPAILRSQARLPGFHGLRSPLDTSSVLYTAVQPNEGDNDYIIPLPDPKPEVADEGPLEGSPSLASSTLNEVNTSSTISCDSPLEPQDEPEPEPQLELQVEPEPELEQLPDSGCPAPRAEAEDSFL
Chain of His6-TEV-PDGFRβ (557-1016) (P09619 whole entry, looked up): as above
Chain of VEGFR2, unphosphorylated (P35968 whole entry, looked up): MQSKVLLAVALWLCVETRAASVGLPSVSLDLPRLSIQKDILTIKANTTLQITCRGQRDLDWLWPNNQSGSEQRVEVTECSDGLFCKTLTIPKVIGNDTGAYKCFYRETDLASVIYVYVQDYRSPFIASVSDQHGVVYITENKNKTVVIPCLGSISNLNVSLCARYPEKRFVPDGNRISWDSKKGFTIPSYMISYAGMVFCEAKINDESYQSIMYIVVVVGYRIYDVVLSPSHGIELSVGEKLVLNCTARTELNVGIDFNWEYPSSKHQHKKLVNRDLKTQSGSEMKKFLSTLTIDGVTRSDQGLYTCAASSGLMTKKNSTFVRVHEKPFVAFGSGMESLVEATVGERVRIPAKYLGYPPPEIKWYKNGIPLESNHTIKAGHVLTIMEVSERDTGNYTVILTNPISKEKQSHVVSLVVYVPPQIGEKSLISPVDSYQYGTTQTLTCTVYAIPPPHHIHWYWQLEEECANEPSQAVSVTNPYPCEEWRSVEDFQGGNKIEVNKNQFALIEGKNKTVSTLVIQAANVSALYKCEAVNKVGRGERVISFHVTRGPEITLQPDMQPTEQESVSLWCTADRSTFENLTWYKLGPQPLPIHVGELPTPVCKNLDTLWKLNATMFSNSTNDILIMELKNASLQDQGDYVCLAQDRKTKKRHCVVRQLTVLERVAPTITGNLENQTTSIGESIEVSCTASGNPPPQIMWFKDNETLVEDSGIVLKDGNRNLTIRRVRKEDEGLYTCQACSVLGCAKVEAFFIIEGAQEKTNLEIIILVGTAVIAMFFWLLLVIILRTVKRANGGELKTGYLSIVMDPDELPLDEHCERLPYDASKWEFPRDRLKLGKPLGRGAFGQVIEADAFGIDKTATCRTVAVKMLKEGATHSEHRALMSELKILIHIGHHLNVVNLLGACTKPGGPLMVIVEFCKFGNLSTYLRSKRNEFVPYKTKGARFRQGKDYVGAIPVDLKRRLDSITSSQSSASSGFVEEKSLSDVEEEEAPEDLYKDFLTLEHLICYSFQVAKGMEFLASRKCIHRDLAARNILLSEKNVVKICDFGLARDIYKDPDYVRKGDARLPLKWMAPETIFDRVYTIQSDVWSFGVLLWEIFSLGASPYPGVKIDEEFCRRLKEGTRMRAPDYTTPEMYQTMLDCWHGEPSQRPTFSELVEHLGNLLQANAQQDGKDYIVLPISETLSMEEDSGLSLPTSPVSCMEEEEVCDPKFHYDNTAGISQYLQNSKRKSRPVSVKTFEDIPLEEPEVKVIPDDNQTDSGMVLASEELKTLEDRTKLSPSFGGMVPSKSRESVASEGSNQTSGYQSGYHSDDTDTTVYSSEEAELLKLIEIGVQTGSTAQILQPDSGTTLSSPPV
Chain of PDGFRβ (Q05030 whole entry, looked up): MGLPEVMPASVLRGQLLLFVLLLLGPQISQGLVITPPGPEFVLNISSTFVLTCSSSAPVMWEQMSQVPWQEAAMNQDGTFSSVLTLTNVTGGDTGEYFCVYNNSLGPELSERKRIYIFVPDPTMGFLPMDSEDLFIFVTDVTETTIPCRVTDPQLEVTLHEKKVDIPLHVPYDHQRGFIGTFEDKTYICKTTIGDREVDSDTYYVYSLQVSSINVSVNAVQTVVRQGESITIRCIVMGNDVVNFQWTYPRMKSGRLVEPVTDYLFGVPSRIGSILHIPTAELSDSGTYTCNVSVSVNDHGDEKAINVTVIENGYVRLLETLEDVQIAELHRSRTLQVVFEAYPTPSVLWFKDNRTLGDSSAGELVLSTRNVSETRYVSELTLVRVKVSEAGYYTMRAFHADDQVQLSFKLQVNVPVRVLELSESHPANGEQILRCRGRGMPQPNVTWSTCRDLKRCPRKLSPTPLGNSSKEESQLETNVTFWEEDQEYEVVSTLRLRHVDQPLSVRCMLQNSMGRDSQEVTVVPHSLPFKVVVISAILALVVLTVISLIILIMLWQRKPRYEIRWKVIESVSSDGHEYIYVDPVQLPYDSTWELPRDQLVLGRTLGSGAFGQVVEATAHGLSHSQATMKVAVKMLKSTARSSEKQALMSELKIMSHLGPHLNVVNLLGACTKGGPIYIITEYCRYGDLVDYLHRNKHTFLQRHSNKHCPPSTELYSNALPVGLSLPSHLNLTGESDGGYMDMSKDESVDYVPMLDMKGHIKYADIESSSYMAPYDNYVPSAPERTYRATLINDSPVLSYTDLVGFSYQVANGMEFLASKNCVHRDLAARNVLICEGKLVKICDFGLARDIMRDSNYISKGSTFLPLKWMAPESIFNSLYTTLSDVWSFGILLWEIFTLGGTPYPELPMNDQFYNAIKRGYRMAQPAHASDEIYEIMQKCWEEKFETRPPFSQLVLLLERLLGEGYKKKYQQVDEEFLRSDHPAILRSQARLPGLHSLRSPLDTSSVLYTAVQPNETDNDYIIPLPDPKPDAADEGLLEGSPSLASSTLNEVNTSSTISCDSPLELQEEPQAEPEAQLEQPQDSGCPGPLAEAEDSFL

As a reminder, the pIC50 is the negative decadic logarithm of the IC50, by convention in mol/L. As for `Cc1ncc(C(=O)NCCN2CCC3(CC3)C2)cc1Nc1nn(C)c2nc(Nc3cnn(C)c3)ncc12` [Example 90, N-(2-(5-azaspiro[2.4]heptan-5-yl)ethyl)-6-methyl-5-((1-methyl-6-((1-methyl-1H-pyrazol-4-yl)amino)-1H-pyrazolo[3,4-d]pyrimidin-3-yl)amino)nicotinamide], the pIC50 was 8.74 in assay [1] (read-out: PDGFR Lantha IC50), 9.60 in assay [2] (setting [5]), less than 5.12 in assay [3] and 7.57 in assay [4] (setting [6]).

Take `Cc1ncc(C(=O)NCCN2C[C@@H](C)O[C@@H](C)C2)cc1Nc1nn(C)c2nc(Nc3cnn(C)c3)ncc12` [Example 91, N-(2-(cis-2,6-dimethylmorpholino)ethyl)-6-methyl-5-((1-methyl-6-((1-methyl-1H-pyrazol-4-yl)amino)-1H-pyrazolo[3,4-d]pyrimidin-3-yl)amino)nicotinamide]: the pIC50 in assay [1] (read-out: PDGFR Lantha IC50) was 8.38; in assay [2] (setting [5]), 9.34; in assay [3], less than 5.12; in assay [4] (setting [6]) it was 7.35.

On to `COCCCN(CCNC(=O)c1cnc(C)c(Nc2nn(C)c3nc(Nc4cnn(C)c4)ncc23)c1)C1CCC1` [Example 93, N-(2-(cyclobutyl(3-methoxypropyl)amino)ethyl)-6-methyl-5-((1-methyl-6-((1-methyl-1H-pyrazol-4-yl)amino)-1H-pyrazolo[3,4-d]pyrimidin-3-yl)amino)nicotinamide], for which the pIC50 in assay [1] (read-out: PDGFR Lantha IC50) is 8.42; in assay [2] (setting [5]), 9.36; in assay [3], less than 5.12; in assay [4] (setting [6]), 7.97.

Turning to `COCCN(CCNC(=O)c1cnc(C)c(Nc2nn(C)c3nc(Nc4cnn(C)c4)ncc23)c1)C1CCCC1` [Example 95, N-(2-(cyclopentyl(2-methoxyethyl)amino)ethyl)-6-methyl-5-((1-methyl-6-((1-methyl-1H-pyrazol-4-yl)amino)-1H-pyrazolo[3,4-d]pyrimidin-3-yl)amino)nicotinamide], the negative-log IC50 (pIC50) is 8.47 in assay [1] (read-out: PDGFR Lantha IC50), 9.28 in assay [2] (setting [5]), less than 5.12 in assay [3] and 8.00 in assay [4] (setting [6]).

Consider `Cc1ncc(C(=O)NCCN(CCCO)C2CCCC2)cc1Nc1nn(C)c2nc(Nc3cnn(C)c3)ncc12` [Example 96, N-(2-(cyclopentyl(3-hydroxypropyl)amino)ethyl)-6-methyl-5-((1-methyl-6-((1-methyl-1H-pyrazol-4-yl)amino)-1H-pyrazolo[3,4-d]pyrimidin-3-yl)amino)nicotinamide], for which the negative-log IC50 (pIC50) is 8.55 in assay [1] (read-out: PDGFR Lantha IC50), 9.37 in assay [2] (setting [5]), less than 5.12 in assay [3] and 6.86 in assay [4] (setting [6]).

Regarding `Cc1ncc(C(=O)NCCN(CCO)C2CCCC2)cc1Nc1nn(C)c2nc(Nc3cnn(C)c3)ncc12` [Example 97, N-(2-(cyclopentyl(2-hydroxyethyl)amino)ethyl)-6-methyl-5-((1-methyl-6-((1-methyl-1H-pyrazol-4-yl)amino)-1H-pyrazolo[3,4-d]pyrimidin-3-yl)amino)nicotinamide], the pIC50 in assay [1] (read-out: PDGFR Lantha IC50) was 8.62; in assay [2] (setting [5]), 9.34; in assay [3] it was less than 5.12; in assay [4] (setting [6]) it was 6.99.

In the case of `CC(=O)Nc1cccc(Nc2ncc3c(Nc4cc(C(=O)NCCN5CCCC5(C)C)cnc4C)nn(C)c3n2)c1` [Example 98, 5-((6-((3-acetamidophenyl)amino)-1-methyl-1H-pyrazolo[3,4-d]pyrimidin-3-yl)amino)-N-(2-(2,2-dimethylpyrrolidin-1-yl)ethyl)-6-methylnicotinamide], the pIC50 was 7.92 in assay [1] (read-out: PDGFR Lantha IC50), 8.70 in assay [2] (setting [5]), less than 5.12 in assay [3] and 6.14 in assay [4] (setting [6]).

Regarding `CC(=O)Nc1cncc(Nc2ncc3c(Nc4cc(C(=O)NCCN5CCCC5(C)C)cnc4C)nn(C)c3n2)c1` [Example 99, 5-((6-((5-acetamidopyridin-3-yl)amino)-1-methyl-1H-pyrazolo[3,4-d]pyrimidin-3-yl)amino)-N-(2-(2,2-dimethylpyrrolidin-1-yl)ethyl)-6-methylnicotinamide], the pIC50 in assay [1] (read-out: PDGFR Lantha IC50) was 8.23; in assay [2] (setting [5]), 9.18; in assay [3], less than 5.12; in assay [4] (setting [6]), 6.86.

With `CC(=O)Nc1cc(Nc2ncc3c(Nc4cc(C(=O)NCCN5CCCC5(C)C)cnc4C)nn(C)c3n2)ccn1` [Example 100, 5-((6-((2-acetamidopyridin-4-yl)amino)-1-methyl-1H-pyrazolo[3,4-d]pyrimidin-3-yl)amino)-N-(2-(2,2-dimethylpyrrolidin-1-yl)ethyl)-6-methylnicotinamide], the pIC50 in assay [1] (read-out: PDGFR Lantha IC50) was 8.55; in assay [2] (setting [5]), 9.41; in assay [3], 5.27; in assay [4] (setting [6]) it was 7.03.

In the case of `Cc1ncc(C(=O)NCCN2CCCC2(C)C)cc1Nc1nn(C)c2nc(Nc3ccnc(N4CCOCC4)c3)ncc12` [Example 101, N-(2-(2,2-dimethylpyrrolidin-1-yl)ethyl)-6-methyl-5-((1-methyl-6-((2-morpholinopyridin-4-yl)amino)-1H-pyrazolo[3,4-d]pyrimidin-3-yl)amino)nicotinamide], the pIC50 in assay [1] (read-out: PDGFR Lantha IC50) is 8.66; in assay [2] (setting [5]) it was 9.42; in assay [3], less than 5.12; in assay [4] (setting [6]), 7.81.

As for `Cc1ncc(C(=O)NCCN2CCCC2(C)C)cc1Nc1nn(C)c2nc(Nc3ccc(N4CCOCC4)nc3)ncc12` [Example 102, N-(2-(2,2-dimethylpyrrolidin-1-yl)ethyl)-6-methyl-5-((1-methyl-6-((6-morpholinopyridin-3-yl)amino)-1H-pyrazolo[3,4-d]pyrimidin-3-yl)amino)nicotinamide], the pIC50 in assay [1] (read-out: PDGFR Lantha IC50) is 8.42; in assay [2] (setting [5]), 9.43; in assay [3] it was less than 5.12; in assay [4] (setting [6]), 8.12.

As for `Cc1ncc(C(=O)NCCN2CCCC2(C)C)cc1Nc1nn(C)c2nc(Nc3ccnc(N4CCN(CCO)CC4)c3)ncc12` [Example 103, N-(2-(2,2-dimethylpyrrolidin-1-yl)ethyl)-5-((6-((2-(4-(2-hydroxyethyl)piperazin-1-yl)pyridin-4-yl)amino)-1-methyl-1H-pyrazolo[3,4-d]pyrimidin-3-yl)amino)-6-methylnicotinamide], the pIC50 in assay [1] (read-out: PDGFR Lantha IC50) was 8.32; in assay [2] (setting [5]), 9.26; in assay [3], less than 5.12; in assay [4] (setting [6]), 6.35.

Consider `Cc1ncc(C(=O)NCCC2CCCCC2)cc1Nc1nn(C)c2nc(Nc3ccc(CC(=O)O)cc3)ncc12` [Example 104, 2-(4-((3-((5-((2-cyclohexylethyl)carbamoyl)-2-methylpyridin-3-yl)amino)-1-methyl-1H-pyrazolo[3,4-d]pyrimidin-6-yl)amino)phenyl)acetic acid], for which the negative logarithm of the IC50 (pIC50) is 8.62 in assay [1] (read-out: PDGFR Lantha IC50), 9.36 in assay [2] (setting [5]), 7.11 in assay [3] and 5.63 in assay [4] (setting [6]).

Take `Cc1ncc(C(=O)NCCC2CCCCC2)cc1Nc1nn(C)c2nc(Nc3ccc(CC#N)nc3)ncc12` [Example 105, 5-((6-((6-(cyanomethyl)pyridin-3-yl)amino)-1-methyl-1H-pyrazolo[3,4-d]pyrimidin-3-yl)amino)-N-(2-cyclohexylethyl)-6-methylnicotinamide]: the negative-log IC50 (pIC50) in assay [1] (read-out: PDGFR Lantha IC50) is 8.57; in assay [2] (setting [5]), 9.23; in assay [3] it was 5.47; in assay [4] (setting [6]), 8.01.

For the compound `Cc1ncc(C(=O)NCCC2CCCCC2)cc1Nc1nn(C)c2nc(Nc3ccc(CC(=O)O)nc3)ncc12` [Example 106, 2-(5-((3-((5-((2-cyclohexylethyl)carbamoyl)-2-methylpyridin-3-yl)amino)-1-methyl-1H-pyrazolo[3,4-d]pyrimidin-6-yl)amino)pyridin-2-yl)acetic acid], the negative-log IC50 (pIC50) in assay [1] was 8.44; in assay [2], 9.12; in assay [3], 6.04; in assay [4], 7.90.

Take `Cc1ncc(C(=O)NCCC2CCCCC2)cc1Nc1nn(C)c2nc(Nc3cncc(CC(=O)O)c3)ncc12` [Example 107, 2-(5-((3-((5-((2-cyclohexylethyl)carbamoyl)-2-methylpyridin-3-yl)amino)-1-methyl-1H-pyrazolo[3,4-d]pyrimidin-6-yl)amino)pyridin-3-yl)acetic acid]: the negative-log IC50 (pIC50) in assay [1] (read-out: PDGFR Lantha IC50) is 8.55; in assay [2] (setting [5]), 9.26; in assay [3], 7.96; in assay [4] (setting [6]), less than 5.70.

In the case of `Cc1ncc(C(=O)NCCC2CCCCC2)cc1Nc1nn(C)c2nc(NCCC3CCCCC3)ncc12` [Example 108, N-(2-cyclohexylethyl)-5-((6-((2-cyclohexylethyl)amino)-1-methyl-1H-pyrazolo[3,4-d]pyrimidin-3-yl)amino)-6-methylnicotinamide], the pIC50 in assay [1] (read-out: PDGFR Lantha IC50) was less than 5.52; in assay [2] (setting [5]), 6.76; in assay [3], less than 5.12; in assay [4] (setting [6]) it was 5.64.

For `Cc1ncc(C(=O)NCCC2CCCCC2)cc1Nc1nn(C)c2nc(Nc3ccc(N4CCNCC4)nc3)ncc12` [Example 109, N-(2-cyclohexylethyl)-6-methyl-5-((1-methyl-6-((6-(piperazin-1-yl)pyridin-3-yl)amino)-1H-pyrazolo[3,4-d]pyrimidin-3-yl)amino)nicotinamide], the pIC50 was 8.40 in assay [1] (read-out: PDGFR Lantha IC50), 9.11 in assay [2] (setting [5]), 6.78 in assay [3] and 6.90 in assay [4] (setting [6]).
